Results taken from patent US20090047221A1 (NIPRI LIMITED, priority 2004, published 2009).

System: cancer cell line MDA-MB-468
Experiment: Combination index with known cancer drugs against proliferation (Calcusyn software)
Type: cell-based
From the text: A combination index of less than 0.1 indicates very strong synergy; a combination index of 0.1 to 0.3 indicates strong synergism; a combination index of 0.3 to 0.7 indicates synergism; a combination index of 0.7 to 0.85 indicates moderate synergism; a combination index of 0.85 to 0.9 indicates slight synergism and a combination index of 0.9 to 1.1 indicates only very slight synergism, said combination being close to merely additive.
The combination index may be calculated using calcusyn software.
Evidence of synergy was determined by calculation of the combination index using Calcusyn software.
The MTT assay was used initially to determine the anti-proliferative activity of the test compounds. In the MTT assay a yellow thiazolyl blue tetrazolium bromide salt (MTT) is reduced, in metabolically active cells, to form insoluble purple formazan crystals which are solubilised by the addition of dimethyl sulphoxide (DMSO). Absorbance readings can then be determined spectrophotometrically and a relationship established between control untreated cells and drug treated cells enabling the quantification of anti-proliferative changes as a result of drug treatment (Mosmann, 1983).
Wells containing medium only were used as blanks. Following the attachment period, cells were treated with appropriate drug concentrations (20 μl added per well). 40 mg/ml stock drug solutions, in DMSO, were stored at −20° C. and on the day of drug treatment working solutions of 4 mg/ml were prepared in medium which was further diluted to achieve final drug dilution volumes of 20 μl. Initial screening was determined over a concentration range of 1-200 μg/ml. For potent compounds the assay was repeated over a narrower concentration range to determine accurate IC50 values. Cells were exposed to drug for 96 h continual exposure (37° C., 5% CO2). Following the 96 h incubation, 50 μl MTT solution (1 g MTT/500 ml PBS) was added per well and the plates were further incubated for 4 h (37° C., 5% CO2). After incubation the MTT and medium was removed from the wells and 100 μl DMSO added per well. Plates were agitated on an orbital mixer platform (Stuart Scientific) for 10 minutes. Absorbance was measured at 570 nm on a Biotrak II (Amersham Bioscience) plate reader. IC50 values were calculated comparing control and drug treated cells.

With `CC(C)CC(NC(=O)c1ccc2c(c1O)C(=O)OC(C)C2)C(=O)OC(C)(C)C` (mixture of isomers) [ALM-55, Leucine Tert-Butyl Ester Amide] the “Combination Index” value (Cisplatin 1 × 10^−2 mol/L, ALM compound 0.1 μg/ml) was 0.003, the “Combination Index” value (Cisplatin 1 × 10^−2 mol/L, ALM compound 0.5 μg/ml) was 0.009 and the “Combination Index” value (Cisplatin 1 × 10^−2 mol/L, ALM compound 1.0 μg/ml) was 0.023. For the same compound, the “Combination Index” value (Cisplatin 1 × 10^−2 mol/L, ALM compound 5.0 μg/ml) was 0.11, the “Combination Index” value (Cisplatin 1 × 10^−3 mol/L, ALM compound 0.1 μg/ml) was 0.031 and the “Combination Index” value (Cisplatin 1 × 10^−3 mol/L, ALM compound 0.5 μg/ml) was “No”. The “Combination Index” value (Cisplatin 1 × 10^−3 mol/L, ALM compound 1.0 μg/ml) was “No”, the “Combination Index” value (Cisplatin 1 × 10^−3 mol/L, ALM compound 5.0 μg/ml) was “No” and the “Combination Index” value (Cisplatin 1 × 10^−4 mol/L, ALM compound 0.1 μg/ml) was “No”. For the same compound, the “Combination Index” value (Cisplatin 1 × 10^−4 mol/L, ALM compound 0.5 μg/ml) was “No”, the “Combination Index” value (Cisplatin 1 × 10^−4 mol/L, ALM compound 1.0 μg/ml) was “No” and the “Combination Index” value (Cisplatin 1 × 10^−4 mol/L, ALM compound 5.0 μg/ml) was “No”. For the same compound, the “Combination Index” value (Cisplatin 1 × 10^−5 mol/L, ALM compound 0.1 μg/ml) was “No”, the “Combination Index” value (Cisplatin 1 × 10^−5 mol/L, ALM compound 0.5 μg/ml) was “No” and the “Combination Index” value (Cisplatin 1 × 10^−5 mol/L, ALM compound 1.0 μg/ml) was “No”. The “Combination Index” value (Cisplatin 1 × 10^−5 mol/L, ALM compound 5.0 μg/ml) was “No”, the “Combination Index” value (Cisplatin 1 × 10^−6 mol/L, ALM compound 0.1 μg/ml) was “No” and the “Combination Index” value (Cisplatin 1 × 10^−6 mol/L, ALM compound 0.5 μg/ml) was “No”. The “Combination Index” value (Cisplatin 1 × 10^−6 mol/L, ALM compound 1.0 μg/ml) was “No”, the “Combination Index” value (Cisplatin 1 × 10^−6 mol/L, ALM compound 5.0 μg/ml) was “No” and the “Combination Index” value (Cisplatin 1 × 10^−7 mol/L, ALM compound 0.1 μg/ml) was 0.431. For the same compound, the “Combination Index” value (Cisplatin 1 × 10^−7 mol/L, ALM compound 0.5 μg/ml) was “No”, the “Combination Index” value (Cisplatin 1 × 10^−7 mol/L, ALM compound 1.0 μg/ml) was “No” and the “Combination Index” value (Cisplatin 1 × 10^−7 mol/L, ALM compound 5.0 μg/ml) was “No”. The “Combination Index” value (Cisplatin 1 × 10^−8 mol/L, ALM compound 0.1 μg/ml) was 0.155, the “Combination Index” value (Cisplatin 1 × 10^−8 mol/L, ALM compound 0.5 μg/ml) was “No” and the “Combination Index” value (Cisplatin 1 × 10^−8 mol/L, ALM compound 1.0 μg/ml) was “No”. The “Combination Index” value (Cisplatin 1 × 10^−8 mol/L, ALM compound 5.0 μg/ml) was “No”, the “Combination Index” value (Cisplatin 1 × 10^−9 mol/L, ALM compound 0.1 μg/ml) was 0.093 and the “Combination Index” value (Cisplatin 1 × 10^−9 mol/L, ALM compound 0.5 μg/ml) was 0.531. The “Combination Index” value (Cisplatin 1 × 10^−9 mol/L, ALM compound 1.0 μg/ml) was “No”, the “Combination Index” value (Cisplatin 1 × 10^−9 mol/L, ALM compound 5.0 μg/ml) was “No” and the “Combination Index” value (Doxorubicin 1 × 10^−4 mol/L, ALM compound 0.1 μg/ml) was “No”. For the same compound, the “Combination Index” value (Doxorubicin 1 × 10^−4 mol/L, ALM compound 0.5 μg/ml) was “No”, the “Combination Index” value (Doxorubicin 1 × 10^−4 mol/L, ALM compound 1.0 μg/ml) was “No” and the “Combination Index” value (Doxorubicin 1 × 10^−4 mol/L, ALM compound 5.0 μg/ml) was “No”. The “Combination Index” value (Doxorubicin 1 × 10^−5 mol/L, ALM compound 0.1 μg/ml) was 0.284, the “Combination Index” value (Doxorubicin 1 × 10^−5 mol/L, ALM compound 0.5 μg/ml) was “No” and the “Combination Index” value (Doxorubicin 1 × 10^−5 mol/L, ALM compound 1.0 μg/ml) was 0.344. The “Combination Index” value (Doxorubicin 1 × 10^−5 mol/L, ALM compound 5.0 μg/ml) was 0.969, the “Combination Index” value (Etoposide 1 × 10^−4 mol/L, ALM compound 0.1 μg/ml) was 0.312 and the “Combination Index” value (Etoposide 1 × 10^−4 mol/L, ALM compound 0.5 μg/ml) was 0.142. The “Combination Index” value (Etoposide 1 × 10^−4 mol/L, ALM compound 1.0 μg/ml) was 0.473, the “Combination Index” value (Etoposide 1 × 10^−4 mol/L, ALM compound 5.0 μg/ml) was 0.335 and the “Combination Index” value (Etoposide 1 × 10^−5 mol/L, ALM compound 0.1 μg/ml) was “No”. The “Combination Index” value (Etoposide 1 × 10^−5 mol/L, ALM compound 0.5 μg/ml) was 1.136, the “Combination Index” value (Etoposide 1 × 10^−5 mol/L, ALM compound 1.0 μg/ml) was “No” and the “Combination Index” value (Etoposide 1 × 10^−5 mol/L, ALM compound 5.0 μg/ml) was “No”. The “Combination Index” value (Etoposide 1 × 10^−6 mol/L, ALM compound 0.1 μg/ml) was “No”, the “Combination Index” value (Etoposide 1 × 10^−6 mol/L, ALM compound 0.5 μg/ml) was “No” and the “Combination Index” value (Etoposide 1 × 10^−6 mol/L, ALM compound 1.0 μg/ml) was “No”. The “Combination Index” value (Etoposide 1 × 10^−6 mol/L, ALM compound 5.0 μg/ml) was “No”, the “Combination Index” value (Etoposide 1 × 10^−7 mol/L, ALM compound 0.1 μg/ml) was “No” and the “Combination Index” value (Etoposide 1 × 10^−7 mol/L, ALM compound 0.5 μg/ml) was “No”. The “Combination Index” value (Etoposide 1 × 10^−7 mol/L, ALM compound 1.0 μg/ml) was “No”, the “Combination Index” value (Etoposide 1 × 10^−7 mol/L, ALM compound 5.0 μg/ml) was “No” and the “Combination Index” value (Etoposide 1 × 10^−8 mol/L, ALM compound 0.1 μg/ml) was 0.414. The “Combination Index” value (Etoposide 1 × 10^−8 mol/L, ALM compound 0.5 μg/ml) was 0.910, the “Combination Index” value (Etoposide 1 × 10^−8 mol/L, ALM compound 1.0 μg/ml) was “No” and the “Combination Index” value (Etoposide 1 × 10^−8 mol/L, ALM compound 5.0 μg/ml) was “No”. The “Combination Index” value (Etoposide 1 × 10^−9 mol/L, ALM compound 0.1 μg/ml) was 0.318, the “Combination Index” value (Etoposide 1 × 10^−9 mol/L, ALM compound 0.5 μg/ml) was 0.829 and the “Combination Index” value (Etoposide 1 × 10^−9 mol/L, ALM compound 1.0 μg/ml) was “No”. For the same compound, the “Combination Index” value (Etoposide 1 × 10^−9 mol/L, ALM compound 5.0 μg/ml) was “No”, the “Combination Index” value (Etoposide 1 × 10^−10 mol/L, ALM compound 0.1 μg/ml) was 0.267 and the “Combination Index” value (Etoposide 1 × 10^−10 mol/L, ALM compound 0.5 μg/ml) was 0.494. The “Combination Index” value (Etoposide 1 × 10^−10 mol/L, ALM compound 1.0 μg/ml) was “No”, the “Combination Index” value (Etoposide 1 × 10^−10 mol/L, ALM compound 5.0 μg/ml) was “No” and the “Combination Index” value (Irinotecan 1 × 10^−3 mol/L, ALM compound 0.1 μg/ml) was 1.133. For the same compound, the “Combination Index” value (Irinotecan 1 × 10^−3 mol/L, ALM compound 0.5 μg/ml) was 0.604, the “Combination Index” value (Irinotecan 1 × 10^−3 mol/L, ALM compound 1.0 μg/ml) was 0.531 and the “Combination Index” value (Irinotecan 1 × 10^−3 mol/L, ALM compound 5.0 μg/ml) was 0.611. For the same compound, the “Combination Index” value (Irinotecan 1 × 10^−4 mol/L, ALM compound 0.1 μg/ml) was 0.205, the “Combination Index” value (Irinotecan 1 × 10^−4 mol/L, ALM compound 0.5 μg/ml) was 0.136 and the “Combination Index” value (Irinotecan 1 × 10^−4 mol/L, ALM compound 1.0 μg/ml) was 0.053. The “Combination Index” value (Irinotecan 1 × 10^−4 mol/L, ALM compound 5.0 μg/ml) was 0.128, the “Combination Index” value (Irinotecan 1 × 10^−5 mol/L, ALM compound 0.1 μg/ml) was “No” and the “Combination Index” value (Irinotecan 1 × 10^−5 mol/L, ALM compound 0.5 μg/ml) was 0.682. For the same compound, the “Combination Index” value (Irinotecan 1 × 10^−5 mol/L, ALM compound 1.0 μg/ml) was “No”, the “Combination Index” value (Irinotecan 1 × 10^−5 mol/L, ALM compound 5.0 μg/ml) was “No” and the “Combination Index” value (Irinotecan 1 × 10^−6 mol/L, ALM compound 0.1 μg/ml) was “No”. For the same compound, the “Combination Index” value (Irinotecan 1 × 10^−6 mol/L, ALM compound 0.5 μg/ml) was “No”, the “Combination Index” value (Irinotecan 1 × 10^−6 mol/L, ALM compound 1.0 μg/ml) was “No” and the “Combination Index” value (Irinotecan 1 × 10^−6 mol/L, ALM compound 5.0 μg/ml) was “No”. The “Combination Index” value (Irinotecan 1 × 10^−7 mol/L, ALM compound 0.1 μg/ml) was “No”, the “Combination Index” value (Irinotecan 1 × 10^−7 mol/L, ALM compound 0.5 μg/ml) was “No” and the “Combination Index” value (Irinotecan 1 × 10^−7 mol/L, ALM compound 1.0 μg/ml) was “No”. The “Combination Index” value (Irinotecan 1 × 10^−7 mol/L, ALM compound 5.0 μg/ml) was “No”, the “Combination Index” value (Irinotecan 1 × 10^−8 mol/L, ALM compound 0.1 μg/ml) was “No” and the “Combination Index” value (Irinotecan 1 × 10^−8 mol/L, ALM compound 0.5 μg/ml) was 0.500. For the same compound, the “Combination Index” value (Irinotecan 1 × 10^−8 mol/L, ALM compound 1.0 μg/ml) was “No”, the “Combination Index” value (Irinotecan 1 × 10^−8 mol/L, ALM compound 5.0 μg/ml) was “No” and the “Combination Index” value (Irinotecan 1 × 10^−9 mol/L, ALM compound 0.1 μg/ml) was “No”. For the same compound, the “Combination Index” value (Irinotecan 1 × 10^−9 mol/L, ALM compound 0.5 μg/ml) was “No”, the “Combination Index” value (Irinotecan 1 × 10^−9 mol/L, ALM compound 1.0 μg/ml) was “No” and the “Combination Index” value (Irinotecan 1 × 10^−9 mol/L, ALM compound 5.0 μg/ml) was “No”. For the same compound, the “Combination Index” value (Irinotecan 1 × 10^−10 mol/L, ALM compound 0.1 μg/ml) was 0.061, the “Combination Index” value (Irinotecan 1 × 10^−10 mol/L, ALM compound 0.5 μg/ml) was “No” and the “Combination Index” value (Irinotecan 1 × 10^−10 mol/L, ALM compound 1.0 μg/ml) was “No”. For the same compound, the “Combination Index” value (Irinotecan 1 × 10^−10 mol/L, ALM compound 5.0 μg/ml) was “No”.
